Experimental data from patent publication US20180312880A1, “NATURAL BROAD-SPECTRUM BIOCIDES” (CONSEJO SUPERIOR DE INVESTIGACIONES CIENTÍFICAS, priority 2015, published 2018).
≈ marks a conversion by molar mass, not a printed value. Marks after values point to notes of the source that are not given here.

Legend:
M. persicae = test: Aphid settlement inhibition on leaf disks (% SI); format: in vivo, Myzus persicae; conditions: for M. persicae % SI: compounds at 50 μg/cm^2, 24 h; for EC50 (M. persicae): dose-response, settlement inhibition, limits in brackets
Description: (§1) Breeding and maintenance of the insects was carried out in a temperature-controlled chamber at 24±1° C., 60-70% relative humidity and a photoperiod of 16:8 hours (light:darkness). Larvae of S. littoralis were maintained on a semisynthetic diet (Poitut and Bues. 1970. Ann. Zool. Ecol. Anim. 2, 79-91) and aphids M. persicae and Rhopalosiphum padi on their host plants, pepper—Capsicum annuum L.—and barley—Hordeum vulgare L.—respectively. Tests on anti-feeding activity were carried out with newly hatched larvae of the sixth stage of S. littoralis and wingless adult aphids. The upper surface of leaf disks (1.0 cm^2) of the pepper (Capsicum annuum L.) were treated with 10 μl of a solution (10 mg/ml for extracts and 5 mg/ml for pure products). Each test consisted of 5 Petri dishes with two (S. littoralis) larvae per dish or twenty boxes (2×2 cm) with ten M. persicae or R. padi aphids incubated in a growth chamber under the same conditions described for the breeding of the insects. Once consumed 75% of the surface of the control dishes (S. littoralis) or after 24 h (M. persicae or R. padi) the consumption (% FI) or settlement index (% SI), was calculated respectively. % FI=[1−(T/C)×100], where T and C are the consumption of treated leaves discs and control; % SI=[1−(% T/C %)] where % C and % T are the percentage of aphids settled on the discs of control and treated leaves (Burgueño et al. 2008. J. Chem. Ecol. 34, 766-771). Compounds with an FI/SI>70% were tested in a dose-response experiment to calculate its relative potency (EC50, being the effective dose for a reduction of 50% of feeding).

S. littoralis = test: Anti-feeding activity on leaf disks (% FI); format: in vivo, Spodoptera littoralis; conditions: compounds at 50 μg/cm^2
Description: as §1, with “Each test consisted of 5 Petri dishes with two (S. littoralis) larvae per dish or twenty boxes (2×2 cm) with ten M. persicae or R. padi aphids incubated in a growth chamber under the same conditions described for the breeding of the insects.” left out, “Compounds with an FI/SI>70% were tested in a dose-response experiment to calculate its relative potency (EC50, being the effective dose for a reduction of 50% of feeding).” left out

Lactuca sativa = test: Phytotoxicity test on seeds (germination, root growth); conditions: for Germination (% C) 72 h / Growth (% C) Root: Lactuca sativa; for Germination (% C) 72 h / Growth (% C) Root / phytotoxic effects on germination and root development: in vivo; for Growth (% C) Root: 6 days
Description: […] 500 μl of distilled water and 10/5 seeds, were added to each well, and the plates were incubated in a growth chamber at 25° C., 70% relative humidity and a 16:08 L:D photoperiod. Seeds' germination was recorded for six days and the elongation of roots was assessed at the end of the experiment. The data were analysed by variance analysis (ANOVA).

Botrytis cinerea = test: Antifungal activity, agar dilution, mycelial growth inhibition; format: cell-based; conditions: for inhibition at 500 µg/mL: 0.5 mg/ml, 48 h
Description: (§2) Phytopathogenic fungi Fusarium moniliforme (Sheldon) [CECT 2152] F. oxysporum fs. lycopersici ([…] 2715] and F. solani (Mart) [CECT 2199] come from the Spanish Type Culture Collection (CECT). The strain Botrytis cinerea Pers.:Fr. (B05.10) is a donation from the Biochemistry Department at the University of La Laguna (ULL). For their maintenance the strains were grown on solid commercial medium PDA at 25° C. […] To determine the antifungal activity, the agar dilution method was used (Murabayashi et al. 1991. J. Pesticide Sci. 16, 419-427). […] In parallel, controls were prepared with ethanol at a concentration of 2%. […] Colonies grown in petri dishes and incubated for 48 h were digitized and measured using the ImageJ 1.43 software. The percentage of inhibition (% I) was calculated as: % I=(C-T/C)×100, where C is the diameter of control colonies and T of the colonies of the tested samples. The growth inhibition effective dose (EC50) was determined by linear regression analysis (% of inhibition of dose log).

M. javanica = test: Nematicidal activity on infective juveniles (J2); format: in vivo, Meloidogyne javanica; conditions: J2, 72 h
Description: The nematode population (M. javanica) was maintained in growth chambers on tomato plants—Lycopersicon esculentum (var Marmande)—at 25° C. and a relative humidity of 70%. The tests were carried out according to the methodology described for M. javanica (Andres et al. 2012. Phytochem. Rev. 11, 371-390) using the biological stage of infective juveniles (J2). […] Each treatment was repeated four times and nematicidal activity was determined from the percentage of infective juveniles dead after 72 h. In cases in which a mortality rate of >99% was determined, dose-response experiments were carried out to determine LC50 and LC90.

F. moniliforme = test: Antifungal activity, agar dilution, mycelial growth inhibition; format: cell-based, Fusarium moniliforme; conditions: Fusarium verticillioides; tested at 0.1 mg/ml (footnote a); 48 h
Description: as §2

R. padi = test: Aphid settlement inhibition on leaf disks (% SI); format: in vivo, Rhopalosiphum padi; conditions: compounds at 50 μg/cm^2; 24 h
Description: as §1, with “Each test consisted of 5 Petri dishes with two (S. littoralis) larvae per dish or twenty boxes (2×2 cm) with ten M. persicae or R. padi aphids incubated in a growth chamber under the same conditions described for the breeding of the insects.” left out, “Compounds with an FI/SI>70% were tested in a dose-response experiment to calculate its relative potency (EC50, being the effective dose for a reduction of 50% of feeding).” left out

F. solani = test: Antifungal activity, agar dilution, mycelial growth inhibition; format: cell-based; conditions: Fusarium solani
Description: as §2

With CCCCCC1=CC(=O)[C@](O)(CCCC)[C@H](O)C1 (stereo in doubt) [Stempholone A, 6-butyl-5,6-dihydroxy-3-pentylcyclohex-2-en-1-one] the “M. persicae % SI” value (M. persicae) was 81.42 ± 5.61%, the “EC50 (M. persicae)” value (M. persicae) was 0.15 (0.06-0.36)* μg/cm^2 and the “S. littoralis % FI” value (S. littoralis) was 41.8 ± 7.9%. For the same molecule, the “Germination (% C) 72 h” value (Lactuca sativa; 5 μg/μl) was 97.50 ± 3.54^ % C, the “Growth (% C) Root” value (Lactuca sativa; 5 μg/μl) was 230.26 ± 21.33 % C and the “phytotoxic effects on germination and root development” value (Lactuca sativa) was “absence of phytotoxic effects”. For the same molecule, the inhibition at 500 µg/mL (Botrytis cinerea) was 56.2 ± 1.5%, the EC50 (Botrytis cinerea; growth inhibition, linear regression, read-out: EC50 (95% CL) Botrytis cinerea) was 430 µg/mL (≈ 1690 µM) and the “M. javanica % paralysed” value (M. javanica; 0.25 mg/ml) was 2.8 ± 0.5%. For the same molecule, the “M. javanica % paralysed” value (M. javanica; 0.5 mg/ml) was 83.05 ± 3.15%.

In the case of CCCC[C@@]1(O)C(=O)C=C(CCCC(C)O)C[C@H]1O (stereo in doubt) [Stempholone B, 6-butyl-5,6-dihydroxy-3-(4-hydroxypentyl)cyclohex-2-en-1-one], the “M. persicae % SI” value (M. persicae) is reported as 83.87 ± 6.89%, the “EC50 (M. persicae)” value (M. persicae) is reported as 0.02 (0.003-0.15)* μg/cm^2 and the inhibition at 100 µg/mL (F. moniliforme) is reported as 4.2%. For the same molecule, the “S. littoralis % FI” value (S. littoralis) was 52.9 ± 5.9%, the “R. padi % SI” value (R. padi) was 45.13 ± 9.09% and the “Germination (% C) 72 h” value (Lactuca sativa; 5 μg/μl) was 100 ± 0.00 % C. For the same molecule, the “Growth (% C) Root” value (Lactuca sativa; 5 μg/μl) was 109.26 ± 9.57 % C, the “phytotoxic effects on germination and root development” value (Lactuca sativa) was “absence of phytotoxic effects” and the inhibition at 500 µg/mL (Botrytis cinerea) was 11.9 ± 3.67%. The EC50 (F. solani; growth inhibition, linear regression, read-out: EC50 (95% CL) F. solani) was 210 µg/mL (≈ 777 µM), the inhibition at 100 µg/mL (F. solani; tested at 0.1 mg/ml (footnote a), 48 h) was 49.9% and the “M. javanica % paralysed” value (M. javanica; 0.5 mg/ml) was 1.24 ± 0.9%.

O=C1C=CC(=O)c2c(O)cccc21 [juglone, reference compound] was tested, and the germination (Lactuca sativa; positive control of germination inhibition, 5 μg/μl) was “lower than 5%”.
